Measured values from PubChem BioAssay AID1963832 (Molecular Pharmacology Branch, DTP, NCI, 2024).

System: 885724-159-R-J1-PDC complex spheroid viability
Test: Anticancer human tumor 885724-159-R-J1-PDC patient-derived pancreatic adenocarcinoma cell line growth inhibition [POLQ]
Conditions: for IC50: curve of first compound; for viability, T/C: stronger effect = lower value
Description: Multicellular complex tumor spheroid response to Polymerase (POL) inhibitors (novobiocin, ART-558, RP6685) in combination with a variety of drugs and investigational agents in selected tumor cell lines
The POL inhibitors (novobiocin, ART-558, and RP6685) were evaluated both individually and in combination with standard of care and investigational anticancer small molecules within a complex spheroid model of solid tumors. . Complex spheroids include a stromal component modeled by human endothelial cells (HUVEC) and fibroblasts modeled by human mesenchymal stem cells (MSCs). The concentration ranges selected for each drug and investigational agent were based upon clinically achievable concentrations if the clinical Cmax of the agent was known.
Compounds. The drugs and investigational agents: novobiocin (NSC847541), ART-558 (NSC835418), RP-6685 (NSC848927), peposertib (NSC802822), ceralasertib (NSC780249), elimusertib (NSC800525), camonsertib (NSC841442), AZD-1390 (NSC803789), olaparib (NSC753686), talazoparib (NSC767125), rucaparib (NSC756644), sotorasib (NSC818433), MRTX-1133 (NSC836407), SN-38 (NSC673596), topotecan (NSC609699), epotoside (NSC141540), doxorubicin (NSC123127), gemcitabine (NSC613327), 5-fluorouracil (NSC19893), paclitaxel (NSC125973), vemurafenib (NSC761431), MSA-2 (NSC828583), SN-011 (NSC837082), adavosertib (NSC754352), prexasertib (NSC758257), carboplatin (NSC241240) and oxaliplatin (NSC266046), were obtained from the National Cancer Institute (NCI) Developmental Therapeutics Program Chemical Repository (21). The FDA-approved anticancer drug set is available from the Developmental Therapeutics Program at https://dtp.cancer.gov/organization/dscb/obtaining/. […] The stock solutions were prepared in dimethyl sulfoxide (DMSO, Sigma-Aldrich, St. Louis, MO, cat. D2650), except for the platinum compounds which were prepared in saline (Quality Biological, Gaithersburg, MD, cat. 114-055-101), at 800-fold the tested concentration and stored at -70 degrees C prior to their use. All drugs and investigational agents were tested over a range starting from a high concentration at or near the clinical Cmax and decreasing in half-log increments. If the clinical Cmax for an agent had not been determined, the highest concentration tested was 10 microM, except for SN-38, which was tested at a high concentration of 1 microM.
Cell Culture. All cells were maintained in an incubator at 37 degrees C and 5% CO2 with 95% humidity. The PDC lines were cultured according to standard operating procedures established by the NCI PDMR (https://pdmr.cancer.gov). Table 3 of the manuscript, lists the cell lines along with the number of the three cell types plated to form the mct-spheroids and media for tumor cell growth. After thawing, all PDC lines, except 997537-175-T-J1-PDC and 415267-285-R-J2-PDC, were cultured in Matrigel-coated flasks prepared with a working solution of 1X Ham's F-12 nutrient mix, without supplementation (Thermo Fisher Scientific, cat. 11765054), 100 U/mL penicillin-streptomycin (Thermo Fisher Scientific, cat. 15140122), and 2.5% Matrigel (Corning Inc., Corning, NY, cat. 354248) for the first three passages. The two PDC lines 997537-175-T-J1-PDC and 415267-285-R-J2-PDC were cultured on uncoated flasks. The 857933-349-R-J2-PDC line was cultured in 6C/Colon 1B media containing advanced DMEM/F-12 (Thermo Fisher Scientific, cat. 12634028), 10 mM HEPES (Thermo Fisher Scientific, cat. 15630080), 1X GlutaMAX supplement (Thermo Fisher Scientific, cat. 35050061), 0.1 mg/mL primocin (InvivoGen, San Diego, CA, cat. ant-pm-2), 10% defined fetal bovine serum, heat inactivated (HyClone Laboratories Inc., Logan, UT, cat. SH30070.03HI), 50% L-WRN conditioned media (ATCC, cat. CRL-3276), 1.25 mM N-Acetyl-L-cysteine (Sigma-Aldrich, cat. A9165), 10 mM nicotinamide (Sigma-Aldrich, cat. N0636), 1X B-27 supplement (Thermo Fisher Scientific, cat. 17504044), 1X N-2 supplement (Thermo Fisher Scientific, cat. […]
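Also: spheroids exposed to compounds for 7 days.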

## CCc1c2c(nc3ccc(O)cc13)-c1cc3c(c(=O)n1C2)COC(=O)[C@]3(O)CC + Nc1ccc(C#CCN(C(=O)Cc2ncc(C(F)(F)F)cc2C(F)(F)F)c2ccc(F)cc2)nn1
Second compound 0.0316 µM
  IC50: 91.9 nM
Second compound 0.1 µM
  IC50: 55.9 nM
Second compound 0.316 µM
  IC50: 45.8 nM
Second compound 1 µM
  IC50: 81.8 nM
Second compound 3.16 µM
  IC50: 59 nM
Second compound 10 µM
  IC50: 120 nM
Second compound 0.0316 µM, first compound 0.00316 µM
  viability, T/C: 73.5%
Second compound 0.0316 µM, first compound 0.01 µM
  viability, T/C: 60.1%
Second compound 0.0316 µM, first compound 0.0316 µM
  viability, T/C: 58%
Second compound 0.0316 µM, first compound 0.1 µM
  viability, T/C: 51.4%
Second compound 0.0316 µM, first compound 0.316 µM
  viability, T/C: 33.5%
Second compound 0.0316 µM, first compound 1 µM
  viability, T/C: 5.95%
Second compound 0.1 µM, first compound 0.00316 µM
  viability, T/C: 82.2%
Second compound 0.1 µM, first compound 0.01 µM
  viability, T/C: 63.5%
Second compound 0.1 µM, first compound 0.0316 µM
  viability, T/C: 52.3%
Second compound 0.1 µM, first compound 0.1 µM
  viability, T/C: 48.1%
Second compound 0.1 µM, first compound 0.316 µM
  viability, T/C: 33.2%
Second compound 0.1 µM, first compound 1 µM
  viability, T/C: 6.65%
Second compound 0.316 µM, first compound 0.00316 µM
  viability, T/C: 83.1%
Second compound 0.316 µM, first compound 0.01 µM
  viability, T/C: 63.6%
Second compound 0.316 µM, first compound 0.0316 µM
  viability, T/C: 48.1%
Second compound 0.316 µM, first compound 0.1 µM
  viability, T/C: 46.1%
Second compound 0.316 µM, first compound 0.316 µM
  viability, T/C: 32.7%
Second compound 0.316 µM, first compound 1 µM
  viability, T/C: 6.56%
Second compound 1 µM, first compound 0.00316 µM
  viability, T/C: 76.3%
Second compound 1 µM, first compound 0.01 µM
  viability, T/C: 63%
Second compound 1 µM, first compound 0.0316 µM
  viability, T/C: 49%
Second compound 1 µM, first compound 0.1 µM
  viability, T/C: 51.4%
Second compound 1 µM, first compound 0.316 µM
  viability, T/C: 37.7%
Second compound 1 µM, first compound 1 µM
  viability, T/C: 5.34%
Second compound 3.16 µM, first compound 0.00316 µM
  viability, T/C: 78.8%
Second compound 3.16 µM, first compound 0.01 µM
  viability, T/C: 65.1%
Second compound 3.16 µM, first compound 0.0316 µM
  viability, T/C: 51.4%
Second compound 3.16 µM, first compound 0.1 µM
  viability, T/C: 47.2%
Second compound 3.16 µM, first compound 0.316 µM
  viability, T/C: 34.6%
Second compound 3.16 µM, first compound 1 µM
  viability, T/C: 5.06%
Second compound 10 µM, first compound 0.00316 µM
  viability, T/C: 72.8%
Second compound 10 µM, first compound 0.01 µM
  viability, T/C: 58.6%
Second compound 10 µM, first compound 0.0316 µM
  viability, T/C: 53.6%
Second compound 10 µM, first compound 0.1 µM
  viability, T/C: 55.1%
Second compound 10 µM, first compound 0.316 µM
  viability, T/C: 39.3%
Second compound 10 µM, first compound 1 µM
  viability, T/C: 5.13%
